Data on 50 molecules can be found in ChEMBL document CHEMBL1131112, “Matrix metalloproteinase inhibitors: a structure-activity study” (J Med Chem, 1998).

SMILES strings stand for the structures.

Assay [1] deals with Matrix metalloproteinase-9 (Homo sapiens, UniProt P14780).
Description: The compound was tested for its binding affinity towards 92 kDa gelatinase (Matrix metalloprotease-9)
In the next assay the target is Neutrophil collagenase (Homo sapiens, UniProt P22894).
Assay [2] addresses 72 kDa type IV collagenase (Homo sapiens, UniProt P08253).
Description: Binding affinity towards 72 kDa gelatinase (Matrix metalloprotease-2)

72 kDa type IV collagenase, sequence (P08253 whole entry): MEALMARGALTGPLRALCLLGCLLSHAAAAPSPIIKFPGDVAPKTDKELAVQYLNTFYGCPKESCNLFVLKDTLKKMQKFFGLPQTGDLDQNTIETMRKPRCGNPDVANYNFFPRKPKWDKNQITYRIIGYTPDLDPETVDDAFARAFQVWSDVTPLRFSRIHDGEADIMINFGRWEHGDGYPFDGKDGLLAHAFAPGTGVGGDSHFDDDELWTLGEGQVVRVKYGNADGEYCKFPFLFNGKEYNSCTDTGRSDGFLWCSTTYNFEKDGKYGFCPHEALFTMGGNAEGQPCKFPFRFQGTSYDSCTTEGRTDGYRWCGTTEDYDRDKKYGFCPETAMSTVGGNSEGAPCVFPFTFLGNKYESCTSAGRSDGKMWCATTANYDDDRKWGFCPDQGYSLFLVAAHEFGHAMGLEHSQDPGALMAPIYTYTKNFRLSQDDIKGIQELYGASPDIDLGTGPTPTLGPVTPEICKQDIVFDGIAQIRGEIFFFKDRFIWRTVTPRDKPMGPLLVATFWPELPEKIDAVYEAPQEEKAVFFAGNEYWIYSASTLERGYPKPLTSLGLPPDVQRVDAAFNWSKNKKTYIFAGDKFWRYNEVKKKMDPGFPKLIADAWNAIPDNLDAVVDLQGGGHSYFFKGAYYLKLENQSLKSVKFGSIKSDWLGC
Neutrophil collagenase, sequence (P22894 whole entry): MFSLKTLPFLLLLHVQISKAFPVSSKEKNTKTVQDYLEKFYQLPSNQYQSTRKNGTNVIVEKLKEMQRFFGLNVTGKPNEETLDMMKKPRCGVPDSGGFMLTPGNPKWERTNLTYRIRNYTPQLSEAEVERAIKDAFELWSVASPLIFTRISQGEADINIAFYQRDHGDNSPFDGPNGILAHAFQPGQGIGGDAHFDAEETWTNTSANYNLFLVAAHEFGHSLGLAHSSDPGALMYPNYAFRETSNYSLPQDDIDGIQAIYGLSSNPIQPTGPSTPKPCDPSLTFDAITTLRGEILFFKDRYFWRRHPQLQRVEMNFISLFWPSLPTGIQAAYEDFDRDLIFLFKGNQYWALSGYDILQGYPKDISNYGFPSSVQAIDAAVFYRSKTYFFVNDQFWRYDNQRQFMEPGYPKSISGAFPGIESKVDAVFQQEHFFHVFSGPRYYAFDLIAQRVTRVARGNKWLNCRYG
Matrix metalloproteinase-9, sequence (P14780 whole entry): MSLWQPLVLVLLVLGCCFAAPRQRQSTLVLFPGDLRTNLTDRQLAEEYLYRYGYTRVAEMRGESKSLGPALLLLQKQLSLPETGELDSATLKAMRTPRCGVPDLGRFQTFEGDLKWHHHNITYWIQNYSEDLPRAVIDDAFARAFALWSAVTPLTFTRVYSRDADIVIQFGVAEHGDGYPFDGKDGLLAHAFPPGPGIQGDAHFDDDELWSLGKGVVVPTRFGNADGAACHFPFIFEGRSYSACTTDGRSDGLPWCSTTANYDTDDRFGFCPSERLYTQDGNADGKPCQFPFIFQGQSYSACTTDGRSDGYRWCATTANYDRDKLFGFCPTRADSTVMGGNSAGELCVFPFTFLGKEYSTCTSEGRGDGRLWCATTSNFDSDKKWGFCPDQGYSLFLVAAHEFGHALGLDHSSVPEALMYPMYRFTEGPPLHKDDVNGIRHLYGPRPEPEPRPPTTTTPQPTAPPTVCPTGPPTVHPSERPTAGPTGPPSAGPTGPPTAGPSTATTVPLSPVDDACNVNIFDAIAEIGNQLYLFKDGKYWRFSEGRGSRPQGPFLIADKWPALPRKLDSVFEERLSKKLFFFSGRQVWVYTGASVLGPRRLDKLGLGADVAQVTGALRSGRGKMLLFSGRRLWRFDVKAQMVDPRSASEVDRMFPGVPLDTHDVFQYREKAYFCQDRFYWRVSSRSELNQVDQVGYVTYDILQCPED
Description for Neutrophil collagenase: The compound was tested for its binding affinity towards neutrophil collagenase (Matrix metalloprotease-8)

Consider `CC(C)C[C@H](CC(=O)NO)C(=O)N[C@H](Cc1ccncc1)C(=O)NCCc1ccc(O)cc1`, for which the Ki (commonly a measure of affinity in units of concentration, obtained from inhibition or displacement) in assay [1] worked out at 1.7 nM; on Neutrophil collagenase, 0.33 nM; in assay [2], 1.9 nM.
In the same order, the values of `CC(C)C[C@H](CC(=O)NO)C(=O)N[C@@H](Cc1c[nH]c2ccccc12)C(=O)NCc1ccccc1` are 5 nM, 1.2 nM and 2 nM.
In the same order, the values of `CC(C)C[C@H](CC(=O)NO)C(=O)N[C@H](Cc1ccc2ccccc2c1)C(=O)N[C@@H](C)c1ccccc1` are 6.9 nM, 14 nM and 13 nM.
The like results for `CNC(=O)[C@@H](Cc1cccc2cccnc12)NC(=O)[C@@H](CC(=O)NO)CC(C)C` were, in that order, 1.5 nM, 0.54 nM and 1.3 nM.
Turning to `CNC(=O)[C@H](Cc1c[nH]c2ccccc12)NC(=O)[C@@H](CC(=O)O)CC(C)C`, the results for the Ki (in assay [1]; at Neutrophil collagenase; in assay [2]) were 100 nM, 17 nM and 170 nM, respectively.
With `CNC(=O)[C@@H](Cc1ccccc1)NC(=O)[C@@H](CC(=O)NO)CC(C)C`, in assay [1], the Ki stood at 0.96 nM.
Consider `CNC(=O)[C@@H](Cc1ccc(-c2ccccc2)cc1)NC(=O)[C@@H](CC(=O)NO)CC(C)C`, for which the values for the Ki (in assay [1]; on Neutrophil collagenase; in assay [2]) were 4.1 nM, 2.4 nM and 4 nM, respectively.
In the same order, the values of `CC(C)C[C@H](CC(=O)NO)C(=O)N[C@@H](Cc1c[nH]c2ccccc12)C(=O)NC1CC1` are 1.2 nM, 0.34 nM and 0.88 nM.
On to `CC(C)C[C@H](CC(=O)NO)C(=O)N[C@@H](Cc1c[nH]c2ccccc12)C(=O)NC1CCCC1`, for which the results for the Ki (in assay [1]; on Neutrophil collagenase; in assay [2]) were 3 nM, 1.6 nM and 2.6 nM, respectively.
Regarding `CC(C)C[C@H](CC(=O)NO)C(=O)N[C@@H](Cc1c[nH]c2ccccc12)C(=O)NCCc1ccc(O)cc1`, the Ki in assay [1] was found to be 1.1 nM; on Neutrophil collagenase, 0.1 nM; in assay [2], 0.52 nM.
The like results for `CC(C)C[C@H](CC(=O)NO)C(=O)N[C@@H](Cc1c[nH]c2ccccc12)C(=O)NCCc1ccccn1` were, in that order, 1.4 nM, 0.49 nM and 0.73 nM.
The like results for `CNC(=O)[C@@H](Cc1csc2ccccc12)NC(=O)[C@@H](CC(=O)NO)CC(C)C` were, in that order, 0.83 nM, 0.45 nM and 0.44 nM.
The like results for `CC(C)C[C@H](CC(=O)NO)C(=O)N[C@@H](Cc1c[nH]c2ccccc12)C(=O)NCCCn1ccnc1` were, in that order, 1.1 nM, 0.59 nM and 1.3 nM.
Turning to `CC(C)C[C@H](CC(=O)NO)C(=O)N[C@@H](Cc1c[nH]c2ccccc12)C(=O)NCc1ccc2c(c1)OCO2`, the Ki in assay [1] stood at 1.7 nM; on Neutrophil collagenase, 3.7 nM; in assay [2], 6.9 nM.
The like results for `CNC(=O)[C@H](Cc1c[nH]c2ccccc12)NC(=O)[C@@H](CC(=O)NOC)CC(C)C` were, in that order, 7.9 nM, 7.7 nM and 6.3 nM.
In the same order, the values of `CC(C)C[C@H](CC(=O)NO)C(=O)N[C@@H](Cc1c[nH]c2ccccc12)C(=O)N1CCCCC1` are 13 nM, 27 nM and 19 nM.
The like results for `CC(C)C[C@H](CC(=O)NO)C(=O)N[C@@H](Cc1c[nH]c2ccccc12)C(=O)NCc1ccncc1` were, in that order, 1.5 nM, 0.29 nM and 0.6 nM.
Turning to `CC(C)C[C@H](CC(=O)NO)C(=O)N[C@@H](Cc1c[nH]c2ccccc12)C(=O)NCCO`, the results for the Ki (in assay [1]; at Neutrophil collagenase; in assay [2]) were 0.76 nM, 0.35 nM and 0.44 nM, respectively.
The like results for `CC(C)C[C@H](CC(=O)NO)C(=O)N[C@@H](Cc1c[nH]c2ccccc12)C(=O)NCCCN1CCOCC1` were, in that order, 1.9 nM, 0.39 nM and 0.71 nM.
In the same order, the values of `CCCC[C@H](CC(=O)NO)C(=O)N[C@@H](Cc1c[nH]c2ccccc12)C(=O)NC` are 0.54 nM, 0.3 nM and 0.57 nM.
In the case of `CC(C)C[C@H](CC(=O)NO)C(=O)N[C@H](Cc1ccncc1)C(=O)NCc1ccccc1`, the Ki in assay [1] stood at 1.5 nM; at Neutrophil collagenase, 0.96 nM.
`CC(C)C[C@H](CC(=O)NO)C(=O)N[C@@H](Cc1c[nH]c2ccccc12)C(=O)N1CCCC1`: the Ki in assay [1] amounted to 26 nM; at Neutrophil collagenase, 17 nM; in assay [2], 20 nM.
In the case of `CC(C)C[C@H](CC(=O)NO)C(=O)N[C@H](Cc1cccnc1)C(=O)NCc1ccccc1`, the Ki in assay [1] was found to be 2.7 nM; on Neutrophil collagenase, 0.63 nM.
Regarding `CC(C)C[C@H](CC(=O)NO)C(=O)N[C@@H](Cc1c[nH]c2ccccc12)C(=O)N(C)C`, the Ki came to 22 nM in assay [1], 8.5 nM on Neutrophil collagenase and 19 nM in assay [2].
In the same order, the values of `CNC(=O)[C@@H](Cc1cnc2ccccc2c1)NC(=O)[C@@H](CC(=O)NO)CC(C)C` are 0.7 nM, 1 nM and 1 nM.
Consider `CC(C)C[C@H](CC(=O)NO)C(=O)N[C@H](Cc1ccc(-c2ccccc2)cc1)C(=O)NCCCN1CCOCC1`, for which the results for the Ki (in assay [1]; on Neutrophil collagenase; in assay [2]) were 3.6 nM, 6.8 nM and 6.7 nM, respectively.
The like results for `CC(C)C[C@H](CC(=O)NO)C(=O)N[C@H](Cc1ccc(-c2ccccc2)cc1)C(=O)N[C@@H](C)c1ccccc1` were, in that order, 6.3 nM, 13 nM and 25 nM.
The like results for `CC(C)C[C@H](CC(=O)NO)C(=O)N[C@@H](Cc1c[nH]c2ccccc12)C(=O)NCc1cccnc1` were, in that order, 0.78 nM, 0.11 nM and 0.52 nM.
Regarding `CC(C)C[C@H](CC(=O)NO)C(=O)N[C@@H](Cc1c[nH]c2ccccc12)C(=O)N1CCOCC1`, the Ki turned out to be 8.7 nM in assay [1], 6.9 nM at Neutrophil collagenase and 3.5 nM in assay [2].
The like results for `CC(C)C[C@H](CC(=O)NO)C(=O)N[C@H](Cc1cccc2ccccc12)C(=O)NCCCN1CCOCC1` were, in that order, 0.58 nM, 0.3 nM and 0.59 nM.
The like results for `CNC(=O)[C@@H](Cc1cccc2ccccc12)NC(=O)[C@@H](CC(=O)NO)CC(C)C` were, in that order, 1.3 nM, 0.64 nM and 0.42 nM.
In the same order, the values of `CNC(=O)[C@@H](CC(C)C)NC(=O)[C@@H](CC(=O)NO)CC(C)C` are 2.5 nM, 0.65 nM and 1.1 nM.
Regarding `CNC(=O)[C@H](Cc1c[nH]c2ccccc12)NC(=O)[C@@H](CC(=O)NO)OC(C)C`, the figures for the Ki (in assay [1]; at Neutrophil collagenase; in assay [2]) were 18 nM, 12 nM and 42 nM, respectively.
In the same order, the values of `CC(C)C[C@H](CC(=O)NO)C(=O)N[C@@H](Cc1c[nH]c2ccccc12)C(=O)NCc1ccccn1` are 0.68 nM, 0.43 nM and 0.54 nM.
In the same order, the values of `CCCCCO[C@H](CC(=O)NO)C(=O)N[C@@H](Cc1c[nH]c2ccccc12)C(=O)NC` are 26 nM, 7.8 nM and 43 nM.
In the same order, the values of `CC(C)C[C@H](CC(=O)NO)C(=O)N[C@@H](Cc1c[nH]c2ccccc12)C(=O)N[C@@H](C)c1ccccc1` are 3.7 nM, 0.75 nM and 0.64 nM.
In the case of `CNC(=O)[C@H](Cc1c[nH]c2ccccc12)N(C)C(=O)[C@@H](CC(=O)NO)CC(C)C`, the Ki in assay [1] is 42 nM; at Neutrophil collagenase, 21 nM; in assay [2] it was 17 nM.
Regarding `CNC(=O)[C@@H](Cc1ccc2ccccc2c1)NC(=O)[C@@H](CC(=O)NO)CC(C)C`, the results for the Ki (in assay [1]; at Neutrophil collagenase; in assay [2]) were 0.99 nM, 1.3 nM and 0.7 nM, respectively.
In the same order, the values of `CC(C)C[C@H](CC(=O)NO)C(=O)N[C@H](Cc1ccc(-c2ccccc2)cc1)C(=O)NCCc1ccc(O)cc1` are 6.5 nM, 13 nM and 8.1 nM.
In the same order, the values of `CCCCCNC(=O)[C@H](Cc1c[nH]c2ccccc12)NC(=O)[C@@H](CC(=O)NO)CC(C)C` are 7.1 nM, 6.5 nM and 4.6 nM.
For `CC(C)C[C@H](CC(=O)NO)C(=O)N[C@H](Cc1ccc(-c2ccccc2)cc1)C(=O)NCc1ccccc1`, the Ki in assay [1] worked out at 3 nM; on Neutrophil collagenase it was 3.6 nM.
Regarding `CC(C)C[C@H](CC(=O)NO)C(=O)N[C@@H](Cc1c[nH]c2ccccc12)C(=O)NCc1nccs1`, the Ki in assay [1] is 0.9 nM; at Neutrophil collagenase it was 0.56 nM.
Regarding `CC(C)C[C@H](CC(=O)NO)C(=O)N[C@H](Cc1ccc2ccccc2c1)C(=O)NCc1ccccc1`, the figures for the Ki (in assay [1]; at Neutrophil collagenase; in assay [2]) were 5.3 nM, 7.7 nM and 18 nM, respectively.
With `CNC(=O)[C@H](Cc1cn(C)c2ccccc12)NC(=O)[C@@H](CC(=O)NO)CC(C)C`, the Ki was 1.6 nM in assay [1] and 0.66 nM on Neutrophil collagenase.
On to `CC(C)C[C@H](CC(=O)NO)C(=O)N[C@@H](Cc1c[nH]c2ccccc12)C(=O)NCc1nc2ccccc2[nH]1`, for which the results for the Ki (in assay [1]; on Neutrophil collagenase; in assay [2]) were 3 nM, 5.2 nM and 7.3 nM, respectively.
In the same order, the values of `CC(C)C[C@H](CC(=O)NO)C(=O)N[C@@H](Cc1c[nH]c2ccccc12)C(=O)NCc1ccco1` are 1.7 nM, 0.49 nM and 0.92 nM.
In the same order, the values of `CNC(=O)[C@@H](Cc1ccncc1)NC(=O)[C@@H](CC(=O)NO)CC(C)C` are 2.8 nM, 1.7 nM and 0.96 nM.
On to `CC(C)C[C@H](CC(=O)NO)C(=O)N[C@@H](Cc1c[nH]c2ccccc12)C(=O)NCCNC(=O)OCc1ccccc1`, for which the Ki amounted to 1.1 nM in assay [1] and 0.94 nM at Neutrophil collagenase.
In the same order, the values of `CC(C)CC(CC(=O)NO)C(=O)N[C@@H](Cc1c[nH]c2ccccc12)C(=O)NC1CCc2ccccc21` (single isomer, unassigned) are 30 nM and 24 nM.
In the same order, the values of `CC(C)C[C@H](CC(=O)NO)C(=O)N[C@@H](Cc1c[nH]c2ccccc12)C(=O)NC1CCc2ccccc21` (single isomer, unassigned) are 100 nM and 130 nM.
